Source: ChEMBL document CHEMBL1137273, “Xanthine mimetics as potent dipeptidyl peptidase IV inhibitors” (Bioorg Med Chem Lett, 2006)

Experiments:
Dipeptidyl peptidase 4 [1] = molecular target: T1, Dipeptidyl peptidase 4 (Homo sapiens, UniProt P27487); test: Inhibition of h-DPPIV
Prolyl endopeptidase = molecular target: T2, Prolyl endopeptidase (Homo sapiens, UniProt P48147); test: Inhibition of h-POP
T2 sequence (P48147 whole entry): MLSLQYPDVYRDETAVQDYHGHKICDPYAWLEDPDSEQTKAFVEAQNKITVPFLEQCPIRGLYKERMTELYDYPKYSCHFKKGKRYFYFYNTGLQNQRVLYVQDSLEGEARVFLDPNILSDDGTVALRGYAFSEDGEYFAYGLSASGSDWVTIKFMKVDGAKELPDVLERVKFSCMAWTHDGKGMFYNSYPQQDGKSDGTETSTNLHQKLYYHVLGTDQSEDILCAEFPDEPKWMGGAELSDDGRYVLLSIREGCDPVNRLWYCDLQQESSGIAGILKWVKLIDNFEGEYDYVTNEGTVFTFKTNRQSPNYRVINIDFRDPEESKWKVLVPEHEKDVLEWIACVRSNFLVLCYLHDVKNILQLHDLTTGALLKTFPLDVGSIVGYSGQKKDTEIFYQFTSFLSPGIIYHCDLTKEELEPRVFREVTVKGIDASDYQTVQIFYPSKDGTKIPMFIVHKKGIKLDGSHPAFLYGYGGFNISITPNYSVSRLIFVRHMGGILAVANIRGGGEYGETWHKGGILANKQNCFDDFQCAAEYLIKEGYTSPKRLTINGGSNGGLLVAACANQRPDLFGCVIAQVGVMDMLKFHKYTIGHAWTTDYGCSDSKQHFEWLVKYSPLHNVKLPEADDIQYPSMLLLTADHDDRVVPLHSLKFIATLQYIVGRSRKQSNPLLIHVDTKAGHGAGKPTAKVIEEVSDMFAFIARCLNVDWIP

Dipeptidyl peptidase 8 = Dipeptidyl peptidase 8 (Homo sapiens, UniProt Q6V1X1); test: Inhibition of h-DPP8
Dipeptidyl peptidase 4 [2] = molecular target: T1, Dipeptidyl peptidase 4; test: Human DPPIV plasma binding (0% plasma); type: cell-free
Dipeptidyl peptidase 9 = Dipeptidyl peptidase 9 (Homo sapiens, UniProt Q86TI2); test: Inhibition of h-DPP9
Sequence of Dipeptidyl peptidase 9 (Q86TI2 whole entry): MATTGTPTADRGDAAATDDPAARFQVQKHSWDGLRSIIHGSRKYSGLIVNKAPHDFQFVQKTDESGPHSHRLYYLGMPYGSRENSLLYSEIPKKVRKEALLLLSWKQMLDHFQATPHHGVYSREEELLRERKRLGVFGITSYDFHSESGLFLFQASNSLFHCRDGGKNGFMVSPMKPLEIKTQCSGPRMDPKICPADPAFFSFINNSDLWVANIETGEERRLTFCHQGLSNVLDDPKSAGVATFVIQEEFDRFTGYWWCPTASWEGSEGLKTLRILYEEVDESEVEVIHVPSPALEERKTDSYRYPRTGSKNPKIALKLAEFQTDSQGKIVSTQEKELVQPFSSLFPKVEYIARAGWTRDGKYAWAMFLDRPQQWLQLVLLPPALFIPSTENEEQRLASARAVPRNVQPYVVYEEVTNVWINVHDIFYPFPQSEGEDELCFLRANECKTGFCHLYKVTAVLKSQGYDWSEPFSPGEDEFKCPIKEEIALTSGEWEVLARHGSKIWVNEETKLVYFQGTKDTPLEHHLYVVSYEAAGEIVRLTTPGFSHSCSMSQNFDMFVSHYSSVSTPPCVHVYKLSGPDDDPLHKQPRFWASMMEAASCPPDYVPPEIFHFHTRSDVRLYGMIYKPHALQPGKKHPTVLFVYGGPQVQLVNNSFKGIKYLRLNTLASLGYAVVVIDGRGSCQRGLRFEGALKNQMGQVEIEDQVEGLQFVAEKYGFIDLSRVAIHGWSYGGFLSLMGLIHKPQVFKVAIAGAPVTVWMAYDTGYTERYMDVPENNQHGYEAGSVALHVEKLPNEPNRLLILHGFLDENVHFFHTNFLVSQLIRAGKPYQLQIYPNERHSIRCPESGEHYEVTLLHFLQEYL

T1 sequence (P27487 whole entry): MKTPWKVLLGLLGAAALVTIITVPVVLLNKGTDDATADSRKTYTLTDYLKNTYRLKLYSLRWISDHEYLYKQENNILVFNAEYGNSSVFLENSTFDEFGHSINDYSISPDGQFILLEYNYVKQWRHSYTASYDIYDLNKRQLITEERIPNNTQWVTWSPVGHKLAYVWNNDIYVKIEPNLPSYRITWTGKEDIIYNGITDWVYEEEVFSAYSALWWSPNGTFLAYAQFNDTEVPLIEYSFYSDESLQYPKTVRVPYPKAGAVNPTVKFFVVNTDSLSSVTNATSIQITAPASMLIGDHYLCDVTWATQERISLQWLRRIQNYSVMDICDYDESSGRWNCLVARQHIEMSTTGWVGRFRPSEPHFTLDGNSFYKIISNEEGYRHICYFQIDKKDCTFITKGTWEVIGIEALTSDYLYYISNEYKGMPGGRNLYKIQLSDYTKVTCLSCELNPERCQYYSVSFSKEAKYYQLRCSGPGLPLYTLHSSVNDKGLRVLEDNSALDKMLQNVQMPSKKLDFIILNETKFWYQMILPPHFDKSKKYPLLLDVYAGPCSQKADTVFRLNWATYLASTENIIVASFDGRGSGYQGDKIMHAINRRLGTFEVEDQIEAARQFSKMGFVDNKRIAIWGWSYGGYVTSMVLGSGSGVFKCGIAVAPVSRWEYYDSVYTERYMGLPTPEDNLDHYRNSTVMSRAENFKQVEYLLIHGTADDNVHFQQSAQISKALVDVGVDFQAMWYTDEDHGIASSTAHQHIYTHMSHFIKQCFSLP
Sequence of Dipeptidyl peptidase 8 (Q6V1X1 whole entry): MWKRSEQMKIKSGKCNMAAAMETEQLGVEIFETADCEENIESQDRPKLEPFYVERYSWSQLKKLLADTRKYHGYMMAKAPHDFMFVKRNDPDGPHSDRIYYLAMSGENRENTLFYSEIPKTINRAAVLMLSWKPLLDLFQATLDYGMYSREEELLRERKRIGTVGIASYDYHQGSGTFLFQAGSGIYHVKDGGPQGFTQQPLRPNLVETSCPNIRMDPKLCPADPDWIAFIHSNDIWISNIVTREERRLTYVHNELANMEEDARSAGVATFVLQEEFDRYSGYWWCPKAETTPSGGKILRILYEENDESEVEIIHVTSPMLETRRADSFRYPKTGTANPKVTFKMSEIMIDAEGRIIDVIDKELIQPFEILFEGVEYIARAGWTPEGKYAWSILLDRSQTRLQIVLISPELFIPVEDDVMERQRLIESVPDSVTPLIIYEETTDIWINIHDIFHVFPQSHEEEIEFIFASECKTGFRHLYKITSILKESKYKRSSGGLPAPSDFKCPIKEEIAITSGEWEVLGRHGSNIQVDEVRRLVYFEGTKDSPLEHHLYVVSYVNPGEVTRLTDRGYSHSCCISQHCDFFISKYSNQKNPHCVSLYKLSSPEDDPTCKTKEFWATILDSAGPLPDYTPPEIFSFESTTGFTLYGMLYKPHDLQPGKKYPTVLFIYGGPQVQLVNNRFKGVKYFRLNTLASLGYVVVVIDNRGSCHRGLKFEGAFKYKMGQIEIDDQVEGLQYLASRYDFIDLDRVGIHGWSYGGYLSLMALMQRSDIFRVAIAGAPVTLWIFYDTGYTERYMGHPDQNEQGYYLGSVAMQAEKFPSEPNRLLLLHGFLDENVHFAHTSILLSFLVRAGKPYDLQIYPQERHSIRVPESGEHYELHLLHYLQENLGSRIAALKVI

Row | Structure (SMILES) | Ki (Dipeptidyl peptidase 4 [1]) [nM] | Ki (Prolyl endopeptidase) [nM] | Ki (Dipeptidyl peptidase 8) [nM] | Ki (Dipeptidyl peptidase 4 [2]) [nM] | Ki (Dipeptidyl peptidase 9) [nM] | IC50 (Dipeptidyl peptidase 4 [1]) [nM]
1 | Cn1ncc2c(nc(N3CCCC(N)C3)n2Cc2ccccc2C#N)c1=O (stereo not drawn) | 260 |  |  |  |  | 
2 | Cn1ncc2nc(N3CCCC(N)C3)n(Cc3cccc(CC#N)c3)c2c1=O (stereo not drawn) | 11 | > 30000 | > 3000 |  |  | 
3 | Cn1c(=O)c2nc(N3CCCC(N)C3)n(Cc3ccccc3C#N)c2c(=O)n1C (stereo not drawn) |  | > 30000 |  |  |  | 
4 | Cn1c(=O)c2c(nc(N3CCCC(N)C3)n2Cc2ccccc2C#N)n(C)c1=O (stereo not drawn) | 2 | > 30000 | > 30000 | 2 |  | 
5 | CN1C(=O)c2nc(N3CCCC(N)C3)n(Cc3ccccc3C#N)c2C1=O (stereo not drawn) |  | > 30000 |  |  | > 3000 | 
6 | NC1CCCN(c2nc3c(n2Cc2ccccc2C(F)(F)F)C(=O)c2ccccc2C3=O)C1 (stereo not drawn) | 25 |  | > 30000 |  | > 3000 | 
7 | Cn1ncc2nc(N3CCCC(N)C3)n(Cc3ccccc3C#N)c2c1=O (stereo not drawn) | 5 | > 30000 | > 3000 |  |  | 
8 | CN1C(=O)C=C(N2CCC[C@@H](N)C2)C(Cc2ccccc2C#N)C1=O (stereo partly drawn) |  |  |  |  |  | 4
